What was measured:
Assay in all cases: HEK293 SEAP reporter assay, other TLRs (Biological Example 3)
Type in all cases: cell-based
Details in all cases: 16 hrs, up to 1 μM
human TLR9 = biological target: T1, human TLR9 (Homo sapiens, UniProt Q9NR96)
T1 construct: host or cells: HEK293
T1 sequence (Q9NR96 26-1032): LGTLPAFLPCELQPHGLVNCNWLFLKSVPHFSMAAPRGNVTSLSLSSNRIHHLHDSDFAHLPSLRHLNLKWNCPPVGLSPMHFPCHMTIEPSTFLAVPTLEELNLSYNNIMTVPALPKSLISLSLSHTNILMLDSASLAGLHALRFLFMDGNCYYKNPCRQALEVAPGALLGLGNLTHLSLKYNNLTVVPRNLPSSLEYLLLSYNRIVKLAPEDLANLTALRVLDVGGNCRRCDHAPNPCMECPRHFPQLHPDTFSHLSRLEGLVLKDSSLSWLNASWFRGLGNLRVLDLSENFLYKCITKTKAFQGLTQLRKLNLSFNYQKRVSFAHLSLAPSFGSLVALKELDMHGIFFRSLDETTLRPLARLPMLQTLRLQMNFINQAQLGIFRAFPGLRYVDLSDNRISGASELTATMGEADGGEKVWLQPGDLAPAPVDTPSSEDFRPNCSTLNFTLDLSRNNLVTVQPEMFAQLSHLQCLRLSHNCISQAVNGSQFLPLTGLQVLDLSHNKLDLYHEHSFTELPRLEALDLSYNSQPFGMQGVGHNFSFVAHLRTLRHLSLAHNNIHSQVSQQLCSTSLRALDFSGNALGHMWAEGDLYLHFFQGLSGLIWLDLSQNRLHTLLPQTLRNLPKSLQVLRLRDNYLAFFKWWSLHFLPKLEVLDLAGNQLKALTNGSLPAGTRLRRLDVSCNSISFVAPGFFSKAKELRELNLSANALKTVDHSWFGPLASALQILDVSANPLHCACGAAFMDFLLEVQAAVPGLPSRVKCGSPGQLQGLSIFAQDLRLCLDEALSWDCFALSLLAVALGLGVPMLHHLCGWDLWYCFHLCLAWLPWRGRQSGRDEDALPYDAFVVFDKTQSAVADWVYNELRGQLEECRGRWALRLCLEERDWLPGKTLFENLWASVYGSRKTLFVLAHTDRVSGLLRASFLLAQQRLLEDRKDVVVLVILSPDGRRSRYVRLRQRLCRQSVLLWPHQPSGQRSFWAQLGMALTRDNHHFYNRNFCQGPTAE
Description: (§1) In this example, the activity of the Compound 1 to stimulate different human and mouse TLR pathways was investigated on HEK293 cells transfected with inducible SEAP (secreted embryonic alkaline phosphatase) reporter genes and also expressing different human TLRs (TLR2, TLR3, TLR4, TLR5, TLR7, TLR8, TLRS) or mouse TLRs (TLR2, TLR3, TLR4, TLR5, TLR7, TLR8, TLR13). Compound A
(§2) HEK293 reporter cell lines were purchased from Invivogen and cell lines were maintained in manufacture recommended culture medium with required supplemental antibiotics. On the day of assay, the cells were harvested with Accutase and counted by the Vi-CELL Cell Viability Analyzers. Cells were re-suspended in HEK blue detection medium and a total of 10000 cells were seeded in each well of a 384-well flat bottom plate. […] Assay plates were cultured at 37° C. in a CO2 incubator for 16 hrs. HEK-Blue™ Detection medium changes to a purple/blue color in the presence of secreted SEAP, which can be detected by spectrophotometry at 620-655 nm. Data was fitted with non-linear regression analysis, using a log(inhibitor) vs. response-variable slope, 3-parameter fit with GraphPad Prism.

human TLR4 = biological target: T2, human TLR4 (Homo sapiens, UniProt O00206+Q9Y6Y9)
T2 construct: host or cells: HEK293
T2 sequence (O00206 24-839): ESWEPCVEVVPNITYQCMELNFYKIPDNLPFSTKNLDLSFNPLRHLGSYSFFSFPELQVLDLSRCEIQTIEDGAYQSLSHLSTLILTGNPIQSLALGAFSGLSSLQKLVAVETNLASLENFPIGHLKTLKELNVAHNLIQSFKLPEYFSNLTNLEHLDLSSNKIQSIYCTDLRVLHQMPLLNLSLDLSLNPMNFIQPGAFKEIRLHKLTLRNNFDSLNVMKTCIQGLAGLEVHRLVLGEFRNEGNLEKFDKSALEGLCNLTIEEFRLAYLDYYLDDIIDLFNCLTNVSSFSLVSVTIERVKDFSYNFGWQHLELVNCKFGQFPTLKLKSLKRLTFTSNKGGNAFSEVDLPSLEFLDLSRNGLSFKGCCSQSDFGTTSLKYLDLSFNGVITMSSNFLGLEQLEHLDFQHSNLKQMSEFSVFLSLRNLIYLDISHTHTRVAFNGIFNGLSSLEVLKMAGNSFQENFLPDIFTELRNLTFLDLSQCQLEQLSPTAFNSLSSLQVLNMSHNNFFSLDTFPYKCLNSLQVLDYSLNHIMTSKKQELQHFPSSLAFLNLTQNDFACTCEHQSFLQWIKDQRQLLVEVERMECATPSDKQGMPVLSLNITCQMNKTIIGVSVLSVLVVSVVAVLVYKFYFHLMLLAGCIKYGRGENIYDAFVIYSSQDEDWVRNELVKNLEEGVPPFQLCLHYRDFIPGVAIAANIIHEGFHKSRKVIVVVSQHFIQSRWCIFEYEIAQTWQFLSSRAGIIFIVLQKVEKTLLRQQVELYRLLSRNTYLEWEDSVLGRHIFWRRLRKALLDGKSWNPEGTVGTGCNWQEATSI
T2 sequence (Q9Y6Y9 17-160 limits assumed): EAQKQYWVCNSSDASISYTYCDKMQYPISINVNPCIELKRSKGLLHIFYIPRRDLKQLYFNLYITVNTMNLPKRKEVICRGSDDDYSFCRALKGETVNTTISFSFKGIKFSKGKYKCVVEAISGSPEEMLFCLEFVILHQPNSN
Description: as §1, §2

human TLR3 = biological target: T3, human TLR3 (Homo sapiens, UniProt O15455)
T3 construct: host or cells: HEK293
T3 sequence (O15455 24-904): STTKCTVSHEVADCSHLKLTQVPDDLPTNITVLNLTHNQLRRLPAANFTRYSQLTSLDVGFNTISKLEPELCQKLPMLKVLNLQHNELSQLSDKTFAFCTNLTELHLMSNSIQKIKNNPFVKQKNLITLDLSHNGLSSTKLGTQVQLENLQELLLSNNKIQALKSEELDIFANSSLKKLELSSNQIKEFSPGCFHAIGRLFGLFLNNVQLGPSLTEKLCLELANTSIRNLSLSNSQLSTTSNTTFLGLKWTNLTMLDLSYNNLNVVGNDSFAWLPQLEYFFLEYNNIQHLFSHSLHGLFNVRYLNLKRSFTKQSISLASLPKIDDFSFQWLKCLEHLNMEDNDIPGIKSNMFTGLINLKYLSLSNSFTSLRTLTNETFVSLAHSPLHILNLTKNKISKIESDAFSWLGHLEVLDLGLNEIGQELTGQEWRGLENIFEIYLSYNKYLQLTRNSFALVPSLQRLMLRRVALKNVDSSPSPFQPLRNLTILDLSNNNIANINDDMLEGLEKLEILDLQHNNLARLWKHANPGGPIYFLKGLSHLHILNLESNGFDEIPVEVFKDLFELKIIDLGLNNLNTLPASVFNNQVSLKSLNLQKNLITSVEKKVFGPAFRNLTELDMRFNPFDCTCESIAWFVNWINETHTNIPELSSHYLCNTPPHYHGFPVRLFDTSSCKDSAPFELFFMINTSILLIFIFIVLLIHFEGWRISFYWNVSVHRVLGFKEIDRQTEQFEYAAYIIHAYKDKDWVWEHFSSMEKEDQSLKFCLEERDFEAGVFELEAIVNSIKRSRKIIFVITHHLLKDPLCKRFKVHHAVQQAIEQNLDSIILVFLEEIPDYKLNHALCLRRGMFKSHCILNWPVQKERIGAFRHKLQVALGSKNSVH
Description: as §1, §2

EC50 (human TLR9) | EC50 (human TLR4) | EC50 (human TLR3) | SMILES
> 1000 nM | > 1000 nM | > 1000 nM | CCCCc1nc2c(N)nc3ccccc3c2n1Cc1ccc(CN)cc1 [Compound A, reference compound]
> 1000 nM | > 1000 nM | > 1000 nM | CCCCn1nc2c(N)nc3ccccc3c2c1Cc1ccc(CN)cc1 [Compound 1, 1-(4-(aminomethyl)benzyl)-2-butyl-2H-pyrazolo[3,4-c]quinolin-4-amine]
